This note sets out measurements from article doi:10.1101/2024.05.17.594634, “Protein Structure Inspired Drug Discovery” (bioRxiv, 2024).

SMILES strings stand for the structures.

The series deals with human CD34+ stem cells. The experiment in a line: Bone marrow stem cell (hematopoietic) colony formation assay. Type of series: cell-based. As for the experimental part:
In parallel with measuring growth inhibition of cancer cell growth, we measured effect on human hematopoietic stem cells. Hematopoietic stem cells reside in the bone marrow and are the source of mature cells present in blood.[66] Bone marrow is one of the most sensitive organs in the body to drug toxicity, especially so for anticancer drugs where it can approach 100%.[67–69] Bone marrow toxicity was measured by performing hematopoietic colony formation assays on human CD34+ stem cells. The stem cell nature of this assay permitted assessment of trilineage colony formation: granulocytic (white blood cells), erythrocytic (red blood cells) and megakaryocytic (platelets), measured by the formation of CFU-GM (colony-forming-granulocyte-macrophage), BFU-E (erythroid burst-forming unites) and CFU-GEMM (colony-forming unit-granulocyte, erythrocyte, monocyte, megakaryocyte) colonies, respectively. Two measurements were taken. Total colonies at eight days were measured, thereby matching the eight-day time frame of cancer cell colony formation assays. At fourteen days, individual colonies have differentiated, permitting quantification of each lineage. Human hematopoietic stem cell trilineage colony formation assays were performed as previously described by us.[65] Briefly, human cord blood CD34+ cells (catalog #: 70008.5) were purchased from StemCell Technology Inc., and seeded at 1 × 10^4 cells per 35 mm dish. Cells were cultured in MethoCult™ Express (StemCell Technologies, Inc.) semisolid media, per manufacturer’s instructions, in the presence of compound or vehicle control. At eight days colonies, i.e., groups of ≥ 10 cells, were counted. At fourteen days, individual colonies of BFU-E, CFU-GM and CFU-GEMM were identified based on manufacturers’ morphologic characterization criteria. Assays were run in replicates of N = 2; some were run in replicates of N = 3, as denoted.

On to `c1ccc2sc(-c3ccc(CNc4ccc5nnnn5n4)o3)nc2c1` [Dxr2-017], for which the “mean number of colonies, % of control, 14 day” value (40 μM compound, 14 days, mean N=2) is on record as 57 % of control. Besides, the “mean number of colonies, % of control, 8 day” value (40 μM compound, total colonies at 8 days, mean N=2) was 70 % of control. Under “40 μM, 14 day”, the “decrease of BFU-E compared to control” value was determined as 97.1 ± 4.1%, the “decrease of CFU-G/M compared to control” value stood at 49.8 ± 0.0%, the “increase of CFU-GEMM compared to control” value is on record as 16.1 ± 12.0% and the “inhibition of 14-day total colony formation” value is reported as 42.6 ± 5.8%.
